Data on 38 compounds can be found in ChEMBL document CHEMBL5543155, “Design, Synthesis, and Biological Evaluation of β-Trifluoroethoxydimethyl Selenides as Potent Antiosteoporosis Agents” (J Med Chem, 2024).

Data set [1] concerns RAW264.7. Kind of data set: Cytotoxicity against mouse RAW264.7 cells assessed as cell destruction at 5 uM incubated for 48 hrs by MTT assay. The class given is toxicity, cell-based. Conditions: raw264.7, 48 h. A general note: Tetrazolium assays rely on reduction of a dye to a coloured formazan, in cell work by metabolically active cells.
Data set [2] has as its system RAW264.7. Kind of data set: Inhibition of RANKL-induced osteoclast differentiation in mouse RAW264.7 cells at 5 uM incubated for 4 days with media replacement for every 2 days by TRAP-staining based light microscopic analysis. Type of data set: functional, cell-based. The note with it: time 4.0 day.

Structures are written as SMILES. Active and inactive are the calls of the source. The calls are words filed in the database; no cut-off is given here.

With `Cc1ccccc1[Se]C(C(=O)Nc1ccccc1)C(C)(C)OCC(F)(F)F` (configuration not stated), the Activity result with RAW264.7 [1] is “Non-Toxic”.
The same measure, in the same setting: in the case of `CC(C)(OCC(F)(F)F)C([Se]c1ccccc1)C(=O)Nc1ccnc(F)c1` (configuration not stated) it was “Non-Toxic”.
Take `CC(C)(OCC(F)(F)F)C([Se]c1cccc(Br)c1)C(=O)Nc1ccccc1` (configuration not stated): the Activity entry with RAW264.7 [1] was “Non-Toxic”. For the same compound, the inhibition entry with RAW264.7 [2] was “Active”.
As to `CC(C)(OCC(F)(F)F)C([Se]c1ccc(F)cc1)C(=O)Nc1ccncc1` (configuration not stated), the Activity entry with RAW264.7 [1] is recorded as “Non-Toxic”.
Regarding `CC(C)(OCC(F)(F)F)C([Se]c1ccccc1)C(=O)Nc1cnc2ccccc2c1` (configuration not stated), the Activity result in the data set on RAW264.7 [1] is listed as “Non-Toxic”. For the same compound, the inhibition entry in the data set on RAW264.7 [2] was “Active”.
Consider `CC(C)(OCC(F)(F)F)C([Se]c1ccccc1)C(=O)Nc1ccccc1` (configuration not stated), for which, in the data set with RAW264.7 [1], the Activity result is listed as “Non-Toxic”.
Regarding `CC(C)(OCC(F)(F)F)C([Se]c1ccccc1Cl)C(=O)Nc1ccccc1` (configuration not stated), in the data set on RAW264.7 [1], the Activity entry is “Non-Toxic”. Further, the inhibition result in the data set with RAW264.7 [2] was “Active”.
In the case of `COc1ccccc1[Se]C(C(=O)Nc1ccccc1)C(C)(C)OCC(F)(F)F` (configuration not stated), in the data set on RAW264.7 [1], the Activity result was “Non-Toxic”. In addition, the inhibition entry in the data set with RAW264.7 [2] is “Active”.
For `CC(C)(OCC(F)(F)F)C([Se]c1ccc(Br)cc1)C(=O)Nc1ccccc1` (configuration not stated) the same measures were “Non-Toxic” and “Active”.
For `CCCC[Se]C(C(=O)Nc1ccccc1)C(C)(C)OCC(F)(F)F` (configuration not stated) the same measures were “Non-Toxic” and “Active”.
For `Cc1ccc([Se]C(C(=O)Nc2ccccc2)C(C)(C)OCC(F)(F)F)cc1` (configuration not stated) the same measures were “Non-Toxic” and “Active”.
Turning to `CC(C)(OCC(F)(F)F)C([Se]c1ccccc1)C(=O)Nc1ccnc(Br)c1` (configuration not stated), the Activity entry in the data set with RAW264.7 [1] was “Non-Toxic”.
Consider `CC(C)(OCC(F)(F)F)C([Se]c1ccccc1)C(=O)Nc1cccnc1` (configuration not stated), for which the Activity result in the data set on RAW264.7 [1] is recorded as “Non-Toxic”.
Take `COc1ccc([Se]C(C(=O)Nc2ccncc2)C(C)(C)OCC(F)(F)F)cc1` (configuration not stated): the Activity result in the data set on RAW264.7 [1] was “Non-Toxic”.
On to `CC(C)(OCC(F)(F)F)C([Se]c1ccccc1)C(=O)NC1CCCCC1` (configuration not stated), for which the Activity result in the data set on RAW264.7 [1] is given as “Non-Toxic”. For the same compound, the inhibition entry in the data set with RAW264.7 [2] is “Active”.
For `Cc1cccc([Se]C(C(=O)Nc2ccccc2)C(C)(C)OCC(F)(F)F)c1` (configuration not stated) the same measures were “Non-Toxic” and “Active”.
For `COc1cc(NC(=O)C([Se]c2ccccc2)C(C)(C)OCC(F)(F)F)ccn1` (configuration not stated), the Activity entry in the data set on RAW264.7 [1] is given as “Non-Toxic”.
Regarding `Cc1cc(Cl)ccc1NC(=O)C([Se]c1ccccc1)C(C)(C)OCC(F)(F)F` (configuration not stated), the Activity entry in the data set on RAW264.7 [1] is reported as “Non-Toxic”. In addition, the inhibition entry in the data set with RAW264.7 [2] is “Active”.
`CC(C)(OCC(F)(F)F)C([Se]c1ccccc1)C(=O)Nc1ccccn1` (configuration not stated): in the data set with RAW264.7 [1], the Activity entry is “Non-Toxic”.
`COc1ccc([Se]C(C(=O)Nc2ccccc2)C(C)(C)OCC(F)(F)F)cc1` (configuration not stated): the Activity result with RAW264.7 [1] was “Non-Toxic”. The inhibition result in the data set on RAW264.7 [2] was “Active”.
Consider `CC(C)(OCC(F)(F)F)C([Se]c1ccccc1F)C(=O)Nc1ccccc1` (configuration not stated), for which the Activity entry in the data set with RAW264.7 [1] was “Non-Toxic”. The inhibition entry with RAW264.7 [2] is “Active”.
For `Cc1cc(NC(=O)C([Se]c2ccccc2)C(C)(C)OCC(F)(F)F)ccn1` (configuration not stated), in the data set with RAW264.7 [1], the Activity entry is recorded as “Non-Toxic”.
As to `CC(C)(OCC(F)(F)F)C([Se]c1cccc(F)c1)C(=O)Nc1ccccc1` (configuration not stated), in the data set with RAW264.7 [1], the Activity result is listed as “Non-Toxic”. For the same compound, the inhibition entry with RAW264.7 [2] is “Active”.
For `CC(C)(OCC(F)(F)F)C([Se]c1ccc(F)cc1)C(=O)Nc1ccccc1` (configuration not stated) the same measures were “Non-Toxic” and “Active”.
For `CC(C)(OCC(F)(F)F)C([Se]c1ccccc1)C(=O)Nc1cccc(F)c1` (configuration not stated) the same measures were “Non-Toxic” and “Active”.
As to `CC(C)(OCC(F)(F)F)C([Se]c1ccccc1Br)C(=O)Nc1ccccc1` (configuration not stated), the Activity result with RAW264.7 [1] is “Non-Toxic”. For the same compound, in the data set on RAW264.7 [2], the inhibition entry is “Active”.
Regarding `Cc1cnccc1NC(=O)C([Se]c1ccccc1)C(C)(C)OCC(F)(F)F` (configuration not stated), the Activity result in the data set with RAW264.7 [1] is “Non-Toxic”.
For `CC(C)(OCC(F)(F)F)C([Se]c1ccc2c(c1)OCO2)C(=O)Nc1ccccc1` (configuration not stated), in the data set on RAW264.7 [1], the Activity result is “Non-Toxic”. Also, the inhibition entry in the data set on RAW264.7 [2] is “Active”.
For `Cc1ccccc1NC(=O)C([Se]c1ccccc1)C(C)(C)OCC(F)(F)F` (configuration not stated) the same measures were “Non-Toxic” and “Active”.
For `CC(C)(OCC(F)(F)F)C([Se]c1ccccc1)C(=O)Nc1cccc(Cl)c1` (configuration not stated), in the data set on RAW264.7 [1], the Activity result is “Non-Toxic”. Also, in the data set on RAW264.7 [2], the inhibition entry is “Active”.
For `COc1ccc(NC(=O)C([Se]c2ccccc2)C(C)(C)OCC(F)(F)F)cc1` (configuration not stated) the same measures were “Non-Toxic” and “Active”.
`CC(C)(OCC(F)(F)F)C([Se]c1ccccc1)C(=O)Nc1ccccc1F` (configuration not stated): in the data set on RAW264.7 [1], the Activity result was “Non-Toxic”.
On the same count and under the same terms, with `CCOC(C)(C)C([Se]c1ccccc1)C(=O)Nc1ccccc1` (configuration not stated) the entry was “Non-Toxic”.
On to `COc1ncccc1[Se]C(C(=O)Nc1ccccc1)C(C)(C)OCC(F)(F)F` (configuration not stated), for which the Activity result with RAW264.7 [1] was “Non-Toxic”. Besides, the inhibition result in the data set with RAW264.7 [2] was “Active”.
For `CC(C)(OCC(F)(F)F)C([Se]c1ccccc1)C(=O)Nc1ccc(I)cc1` (configuration not stated) the same measures were “Non-Toxic” and “Active”.
For `CC(C)(OCC(F)(F)F)C([Se]c1ccccc1)C(=O)Nc1ccc(Br)cc1` (configuration not stated) the same measures were “Non-Toxic” and “Active”.
For `COc1ccccc1NC(=O)C([Se]c1ccccc1)C(C)(C)OCC(F)(F)F` (configuration not stated) the same measures were “Non-Toxic” and “Active”.
With `CC(C)(OCC(F)(F)F)C([Se]c1ccccc1)C(=O)Nc1ccnc(Cl)c1` (configuration not stated), the Activity entry in the data set with RAW264.7 [1] is given as “Non-Toxic”.
